The results in this text go back to PubChem BioAssay AID2060490 (Molecular Pharmacology Branch, DTP, NCI, 2025).

Broadly, the viability, T/C is the result in the treated group divided by that in the control group, in per cent. What is called IC50 is the midpoint of a concentration-inhibition curve.

The test has as its system 885512-296-R-J2-PDC complex spheroid viability. In words: Anticancer human tumor 885512-296-R-J2-PDC patient-derived breast carcinoma cell line growth inhibition [GQUAD]. The note with it: for viability, T/C: stronger effect = lower value. The source says: DNA G-quadruplex Stabilizer Agents in Combinations in Complex Spheroids
A high-throughput screen of multi-cell type tumor spheroids was designed to identify active combinations of DNA G-quadruplex stabilizer agents and targeted small molecules. Complex spheroids include a stromal component modeled by human endothelial cells (HUVEC) and fibroblasts modeled by human mesenchymal stem cells (MSCs). The concentration ranges selected for each drug and investigational agent were based upon clinically achievable concentrations if the clinical Cmax of the agent was known.
Compounds. The drugs and investigational agents: pidnarulex (CX-5461; NSC782164), APTO-253 (NSC789042), BRACO-19 (NSC847499), peposertib (NSC802822), ceralasertib (NSC780249), elimusertib (NSC800525), camonsertib (NSC841442), AZD-1390 (NSC803789), olaparib (NSC753686), talazoparib (NSC767125), ART-558 (NSC835418), sotorasib (NSC818433), MRTX-1133 (NSC836407), SN-38 (NSC673596), topotecan (NSC609699), etoposide (NSC141540), doxorubicin (NSC123127), gemcitabine (NSC613327), 5-fluorouracil (NSC19893), paclitaxel (NSC125973), vemurafenib (NSC761431), panobinostat (NSC761190), R-306465 (JNJ-16241199; NSC773264), adavosertib (NSC754352), TP-3654 (NSC805149), carboplatin (NSC241240), KSQ-4279 (NSC840948), and staurosporine (NSC755774) were obtained from the National Cancer Institute (NCI) Developmental Therapeutics Program Chemical Repository (34). The FDA-approved anticancer drug set is available from the NCI Developmental Therapeutics Program. […] The stock solutions were prepared in dimethyl sulfoxide (DMSO, Sigma-Aldrich, St. Louis, MO, cat. D2650) at 800-fold the tested concentration and stored at -70 degrees C prior to their use. All drugs and investigational agents were tested over a range starting from a high concentration at or near the clinical Cmax and decreasing in half-log increments. If the clinical Cmax for an agent had not been determined, the highest concentration tested was 10 microM.
2.3 Cell Culture. All cells were maintained in an incubator at 37 degrees C and 5% CO2 with 95% humidity. The PDC lines were cultured according to standard operating procedures established by the NCI PDMR. All PDCs were thawed and cultured in Matrigel-coated flasks prepared with a working solution of 1X Ham's F-12 nutrient mix, without supplementation (Invitrogen, cat. 11765054), 100 U/mL penicillin-streptomycin (Invitrogen, cat. 15140122), and 2.5% Matrigel (Corning Inc., cat. 354248) for the first three passages. The 857933-349-R-J2-PDC line was cultured in 6C/Colon 1B media, which includes advanced DMEM/F-12 (Thermo Fisher Scientific, cat. 12634028), 10 mM HEPES (Thermo Fisher Scientific, cat. 15630080), 1X GlutaMAX supplement (Thermo Fisher Scientific, cat. 35050061), 0.1 mg/mL primocin (InvivoGen, cat. ant-pm-2), 10% defined fetal bovine serum, heat inactivated (HyClone Laboratories Inc., cat. SH30070.03HI), 50% L-WRN conditioned media (ATCC, cat. CRL-3276), 1.25 mM N-Acetyl-L-cysteine (Sigma-Aldrich, cat. A9165), 10 mM nicotinamide (Sigma-Aldrich, cat. N0636), 1X B-27 supplement (Thermo Fisher Scientific, cat. 17504044), 1X N-2 supplement (Thermo Fisher Scientific, cat. 17502048), 10 microM Y-27632 dihydrochloride (Tocris Bioscience, cat. 1254), and 50 ng/mL human EGF recombinant protein (Thermo Fisher Scientific, cat. PHG0311). The 485176-168-R4-J1-PDC line was cultured in Panc media, which includes all 6C/Colon 1B media components plus 100 ng/mL human FGF-10 (Thermo Fisher Scientific, cat. 100-26), 500 nM SB-431542 (Selleckchem, cat. S1067), and gastrin (Tocris, cat. 3006).
[…]

Where “and” joins values, the source holds several entries; their conditions need not be identical. Equal values may be shown once.
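Further: spheroids exposed to the compounds for one week.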
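Wherever viability, T/C is given: percent of tumor spheroid viability relative to DMSO vehicle control wells.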

With `C=CC(=O)N1CCN(c2nc(=O)n(-c3c(C)ccnc3C(C)C)c3nc(-c4c(O)cccc4F)c(F)cc23)C(C)C1` (centres undefined), the viability, T/C was 99% and 103% and 101% (compound 0.0316 µM); 91% and 94.9% and 108% (compound 0.1 µM); 109% and 105% and 97.4% (compound 0.316 µM); 109% and 98.9% and 95.3% (compound 1 µM); 99.7% and 103% and 91.2% (compound 3.16 µM); 96.4% (2×) and 95.7% (compound 10 µM). For the setting “curve of compound”, the half-maximal inhibitory concentration (IC50) was > 10000 nM.

`CC(=O)O[C@H]1C(=O)[C@@]2(C)[C@H]([C@H](OC(=O)c3ccccc3)[C@]3(O)C[C@H](OC(=O)[C@H](O)[C@@H](NC(=O)c4ccccc4)c4ccccc4)C(C)=C1C3(C)C)[C@]1(OC(C)=O)CO[C@@H]1C[C@@H]2O`: the viability, T/C reads like this: (compound 0.0316 µM) 79.3% and 9.94% and 12.2%; (compound 0.316 µM) 21.6% and 4.6% and 3.99%; (compound 1 µM) 2.5% and 3.51% and 4.61%; (compound 3.16 µM) 0.25% and 3.46% and 2.82%; (compound 10 µM) 0.14% and 3.66% and 4.04%. Moreover, the IC50 (curve of compound) is 113 nM and < 31.6 nM.

For `CC(C)n1c(=O)n(C)c2cnc3cc(F)c(-c4ccc(OCCCN5CCCCC5)nc4)cc3c21`, the viability, T/C reads like this: (compound 0.0316 µM) 88.8% and 89% and 85.8%; (compound 0.1 µM) 97% and 84.5% and 80.4%; (compound 0.316 µM) 88% and 93.7% and 77.8%; (compound 1 µM) 85.8% and 90.9% and 79.7%; (compound 3.16 µM) 104% and 97.5% and 90.3%; (compound 10 µM) 100% and 105% and 104%. The IC50 (curve of compound) was > 10000 nM.

`CC1COCCN1c1cc(-c2ccnn2C)c2ccnc(-c3ccn[nH]3)c2n1` (centres undefined): the viability, T/C is 48% and 48.8% and 42.3% (compound 0.0316 µM); 6.72% and 6.01% and 7.2% (compound 0.1 µM); 2.82% and 3.14% and 2.97% (compound 0.316 µM); 3.36% and 4.09% and 3.06% (compound 1 µM); 4.39% and 4.91% and 5.11% (compound 3.16 µM); 7.29% and 7.28% and 8.11% (compound 10 µM). For the same molecule, under “curve of compound”, the IC50 is < 31.6 nM.

For the molecule `CC1COCCN1c1cc(C2(O)CC3CCC(C2)O3)c2cnn(-c3ccn[nH]3)c2n1` (centres undefined), the viability, T/C was 35.6% and 35.7% and 28.2% (compound 0.0316 µM); 5.4% and 6.31% and 4.72% (compound 0.1 µM); 3.47% and 3.66% and 2.97% (compound 0.316 µM); 4.37% and 4.46% and 4.22% (compound 1 µM); 5.77% and 6.96% and 7.53% (compound 3.16 µM); 7.08% and 8.11% and 7.48% (compound 10 µM). Besides, the half-maximal inhibitory concentration (IC50) (curve of compound) was < 31.6 nM.

Turning to `CC1COCCN1c1cc(C2(S(C)(=N)=O)CC2)nc(-c2ccnc3[nH]ccc23)n1` (centres undefined), the viability, T/C runs as follows: (compound 0.0316 µM) 103% (2×) and 99.8%; (compound 0.1 µM) 106% and 90.2% and 88.9%; (compound 0.316 µM) 98.9% and 83.5% and 84.4%; (compound 1 µM) 43% and 40% and 30%; (compound 3.16 µM) 5.74% and 6.03% and 4.64%; (compound 10 µM) 4.07% and 4.55% and 4.14%. Besides, the 50% inhibitory concentration (IC50) (curve of compound) is 865 nM and 752 nM and 652 nM.

With `CC[C@@]1(O)C(=O)OCc2c1cc1n(c2=O)Cc2cc3c(CN(C)C)c(O)ccc3nc2-1`, the viability, T/C reads like this: (compound 0.000999 µM) 116% and 100% and 107%; (compound 0.00316 µM) 93.6% and 104% and 96.9%; (compound 0.00999 µM) 84% and 86.7% and 91.6%; (compound 0.0316 µM) 47.7% and 30.2% and 36.7%; (compound 0.0999 µM) 11.4% and 8.49% and 7.63%; (compound 0.316 µM) 4.95% and 2.59% and 5.86%. The IC50 (curve of compound) is 27.4 nM and 21.2 nM and 23.9 nM.

As for `CCc1c2c(nc3ccc(O)cc13)-c1cc3c(c(=O)n1C2)COC(=O)[C@]3(O)CC`, the viability, T/C by setting is: (compound 0.000999 µM) 25.5% and 14.5% and 17.8%; (compound 0.00316 µM) 8.48% and 8.19% and 8.06%; (compound 0.00999 µM) 5.42% and 2.67% and 4.25%; (compound 0.0316 µM) 3.41% and 2.61% and 2.84%; (compound 0.0999 µM) 2% and 2.11% and 1.97%; (compound 0.316 µM) 1.84% and 1.42% and 1.47%. Moreover, the half-maximal inhibitory concentration (IC50) (curve of compound) was < 0.999 nM.

As for `CN(C)c1ccc(Nc2c3ccc(NC(=O)CCN4CCCC4)cc3nc3cc(NC(=O)CCN4CCCC4)ccc23)cc1`, the viability, T/C (compound 0.0316 µM) was 100% [middle of 12 runs]; the viability, T/C (compound 0.1 µM) was 102% [middle of 12 runs]; the viability, T/C (compound 0.316 µM) was 105% [middle of 12 runs]; the viability, T/C (compound 1 µM) was 102% [middle of 12 runs]; the viability, T/C (compound 3.16 µM) was 103% [middle of 12 runs]; the viability, T/C (compound 10 µM) is 21.1% [middle of 12 runs]. Moreover, under “compound alone, run of 04/22/2024”, the IC50 was 6.43 µM [middle of 11 runs].

In the case of `COc1cc(C2c3cc4c(cc3C(OC3OC5COC(C)OC5C(O)C3O)C3COC(=O)C23)OCO4)cc(OC)c1O` (centres undefined), the viability, T/C is 100% and 98.3% and 90.5% (compound 0.0316 µM); 97.9% and 98.6% and 88.2% (compound 0.1 µM); 87.8% and 77.3% and 74.2% (compound 0.316 µM); 43.1% and 30.2% and 27.2% (compound 1 µM); 15.4% and 11.7% and 11.3% (compound 3.16 µM); 9.14% and 7.67% and 7.65% (compound 10 µM). In addition, the IC50 (curve of compound) is 843 nM and 618 nM and 573 nM.
